In US20090318527A1, “INDOLE COMPOUNDS AND METHODS OF USE THEREOF” (priority 2008, published 2009):
Counter-ions that a name gives are not always drawn.

Key:
human 5-HT2A receptor = target: T1, human 5-HT2A receptor (Homo sapiens, UniProt P28223); test: Intracellular calcium flux assay, HEK 293 cells stably expressing 5-HT2A; assay type: cell-based; conditions: for 5-HT2A efficacy as percentage of the maximal 5-HT response ± SD / EC50: calcium flux, at least three independent experiments; for 5-HT2A response as percentage of the maximal 5-HT response @ 10,000: EC50 not reached; for EC50: each in triplicate, read-out: 5-HT2A mean EC50 ± SD; for Emax at 10 µM: HEK293, read-out: 5-HT2A functional activity (N/A class);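 on all read-outs here: fluorescent calcium dye read on FLIPR Tetra, peak signal above baseline within 60 s after compound addition, seven concentrations spanning 10 pM to 10 µM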
T1 construct: expressed in transfected cells; host or cells: HEK 293

5-HT2C = target: T2, 5-HT2C (Homo sapiens, UniProt P28335); test: Intracellular calcium flux assay, HEK 293 cells stably expressing 5-HT2C; assay type: cell-based; design: expressed in transfected cells; host or cells: HEK 293; conditions: for Emax: HEK293, read-out: 5-HT2C efficacy as percentage of the maximal 5-HT response ± SD, at least three independent experiments, entries marked a (42, 50, 51, 52) single measurements; for EC50: read-out: 5-HT2C mean EC50 ± SD;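 on all read-outs here: calcium dye fluorescence read on FLIPR Tetra as peak signal above baseline within 60 s of compound addition, seven concentrations from 10 pM to 10 µM, each in triplicate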
T2 sequence (P28335 33-458): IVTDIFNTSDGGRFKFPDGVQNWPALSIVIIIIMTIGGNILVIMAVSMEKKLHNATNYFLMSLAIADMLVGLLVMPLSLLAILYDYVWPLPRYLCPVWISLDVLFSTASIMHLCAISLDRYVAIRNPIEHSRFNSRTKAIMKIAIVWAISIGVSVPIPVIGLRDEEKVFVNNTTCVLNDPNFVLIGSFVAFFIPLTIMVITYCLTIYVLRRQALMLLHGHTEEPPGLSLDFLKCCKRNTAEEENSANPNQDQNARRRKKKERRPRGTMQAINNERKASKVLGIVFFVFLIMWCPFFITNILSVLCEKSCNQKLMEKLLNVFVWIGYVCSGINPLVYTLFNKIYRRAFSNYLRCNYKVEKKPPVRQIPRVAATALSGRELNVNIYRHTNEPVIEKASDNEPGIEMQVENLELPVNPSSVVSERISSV

human 5-HT2B receptor = target: T3, human 5-HT2B receptor (Homo sapiens, UniProt P41595); test: Intracellular calcium flux assay, HEK 293 cells stably expressing 5-HT2B; assay type: cell-based; conditions: for Emax at 10 µM: HEK293, read-out: 5-HT2B functional activity (N/A class); for EC50 / Emax: calcium flux, at least three independent experiments; for EC50: each in triplicate, read-out: 5-HT2B mean EC50 ± SD; for Emax: HEK293, read-out: 5-HT2B efficacy as percentage of the maximal 5-HT response ± SD;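 on all read-outs here: calcium dye fluorescence read on a FLIPR Tetra, peak signal above baseline within 60 s after compound addition, seven-point concentration series from 10 pM up to 10 µM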
T3 construct: expressed in transfected cells; host or cells: HEK 293

[1] = at least three independent experiments, entries marked a (42, 50, 51, 52) single measurements

T1 sequence (P28223 whole entry): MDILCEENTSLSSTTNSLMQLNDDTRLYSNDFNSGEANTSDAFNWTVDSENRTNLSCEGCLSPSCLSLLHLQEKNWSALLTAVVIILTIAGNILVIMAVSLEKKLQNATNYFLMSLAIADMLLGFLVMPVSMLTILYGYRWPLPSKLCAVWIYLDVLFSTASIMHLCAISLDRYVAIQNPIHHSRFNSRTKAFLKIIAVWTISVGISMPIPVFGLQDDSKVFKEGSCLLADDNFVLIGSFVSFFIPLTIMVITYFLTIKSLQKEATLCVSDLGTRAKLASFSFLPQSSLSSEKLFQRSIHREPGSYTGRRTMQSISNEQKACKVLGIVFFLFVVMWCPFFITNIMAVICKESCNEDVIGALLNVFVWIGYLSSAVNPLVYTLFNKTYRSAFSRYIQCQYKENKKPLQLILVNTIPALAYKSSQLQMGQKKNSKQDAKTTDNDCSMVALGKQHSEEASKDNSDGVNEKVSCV
T3 sequence (P41595 whole entry): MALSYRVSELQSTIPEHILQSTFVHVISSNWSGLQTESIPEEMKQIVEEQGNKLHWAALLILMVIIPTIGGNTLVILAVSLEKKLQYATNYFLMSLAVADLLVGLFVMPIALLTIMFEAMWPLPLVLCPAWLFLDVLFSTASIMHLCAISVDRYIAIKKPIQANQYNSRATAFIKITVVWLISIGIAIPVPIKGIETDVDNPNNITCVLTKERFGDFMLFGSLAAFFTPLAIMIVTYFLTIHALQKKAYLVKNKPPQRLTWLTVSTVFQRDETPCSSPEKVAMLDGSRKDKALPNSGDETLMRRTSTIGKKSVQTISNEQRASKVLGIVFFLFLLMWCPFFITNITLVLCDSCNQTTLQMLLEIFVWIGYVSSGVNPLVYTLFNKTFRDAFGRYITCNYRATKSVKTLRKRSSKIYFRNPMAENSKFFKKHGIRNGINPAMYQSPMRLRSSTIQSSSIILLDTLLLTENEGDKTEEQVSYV

Structure (SMILES) | melting point | 5-HT2A efficacy as percentage of the maximal 5-HT response ± SD (human 5-HT2A receptor) | 5-HT2A response as percentage of the maximal 5-HT response @ 10,000 (human 5-HT2A receptor; at 10,000 nM) | EC50 (human 5-HT2A receptor) | Emax (5-HT2C) | EC50 (5-HT2C; [1]) | Emax at 10 µM (human 5-HT2B receptor; at 10,000 nM) | 5-HT2B response as percentage of the maximal 5-HT response @ 10,000 (human 5-HT2B receptor; at 10,000 nM, EC50 not reached) | EC50 (human 5-HT2B receptor) | Emax at 10 µM (human 5-HT2A receptor; at 10,000 nM) | Emax (human 5-HT2B receptor) | 5-HT2A functional activity (N/A class) (human 5-HT2A receptor; at 10,000 nM) | 5-HT2C efficacy as percentage of the maximal 5-HT response ± SD (5-HT2C; [1]) | 5-HT2B functional activity (N/A class) (human 5-HT2B receptor; at 10,000 nM)
CCCOc1c(F)ccc2c1c(CCN(C)C)cn2CCC.Cl | 142 to 145 °C | – | – | – | – | – | – | – | – | – | – | – | – | –
NCCc1c[nH]c2ccc(O)cc12 [Compound 5-HT, 5-hydroxytryptamine, reference compound] | – | (100%) | – | – | – | – | – | – | – | – | – | – | – | –
CCn1cc(CCN(C)C)c2c(OC)ccc(F)c21 [Compound 23, 2-(1-Ethyl-7-fluoro-4-methoxy-1H-indol-3-yl)-N,N-dimethylethanamine] | – | – | (17 ± 3.7 @ 10,000) % | > 10000 nM | 71% | 13 ± 1.74 nM | < 10% | – | – | – | – | – | – | –
CCOc1ccc(F)c2c1c(CCN(C)C)cn2CC [Compound 24, 2-(4-Ethoxy-1-ethyl-7-fluoro-1H-indol-3-yl)-N,N-dimethylethanamine] | 59 to 60 °C | – | (21 ± 5.5 @ 10,000) % | > 2000 nM | 77% | 57 ± 17.1 nM | – | (14 ± 4.8 @ 10,000) % | > 5000 nM | – | – | – | – | –
CCCOc1ccc(F)c2c1c(CCN(C)C)cn2CC [Compound 25, 2-(1-Ethyl-7-fluoro-4-propoxy-1H-indol-3-yl)-N,N-dimethylethanamine] | 49 to 50 °C | – | – | – | 75% | 168 ± 27.2 nM | – | – | 1450 nM | < 10% | 31% | – | – | –
CCOc1ccc(F)c2c1c(CCN(C)C)cn2C [Compound 26, 2-(4-Ethoxy-7-fluoro-1-methyl-1H-indol-3-yl)-N,N-dimethylethanamine] | – | (25 ± 4.1%) | – | 1490 nM | 82% | 43 ± 18.8 nM | – | – | 217 ± 95.9 nM | – | 28% | – | – | –
CCCOc1ccc(F)c2c1c(CCN(C)C)cn2C [Compound 27, 2-(7-Fluoro-1-methyl-4-propoxy-1H-indol-3-yl)-N,N-dimethylethanamine] | – | – | – | – | 75% | 96 ± 19.8 nM | – | – | 334 ± 88.7 nM | < 10% | 54% | – | – | –
CCCn1cc(CCN(C)C)c2c(OC)ccc(F)c21 [Compound 28, 2-(7-Fluoro-4-methoxy-1-propyl-1H-indol-3-yl)-N,N-dimethylethanamine] | – | – | – | – | 45% | 76 ± 39.1 nM | < 10% | – | – | < 10% | – | – | – | –
CCCn1cc(CCN(C)C)c2c(OCC)ccc(F)c21 [Compound 29, 2-(4-Ethoxy-7-fluoro-1-propyl-1H-indol-3-yl)-N,N-dimethylethanamine] | – | – | – | – | 43% | 346 ± 97 nM | < 10% | – | – | < 10% | – | – | – | –
CCCOc1ccc(F)c2c1c(CCN(C)C)cn2CCC [Compound 30, 2-(7-Fluoro-4-propoxy-1-propyl-1H-indol-3-yl)-N,N-dimethylethanamine] | – | – | – | – | 37% | 858 ± 289 nM | < 10% | – | – | < 10% | – | – | – | –
COc1cc(F)cc2c1c(CCN(C)C)cn2C.Cl [Compound 31, 2-(6-Fluoro-4-methoxy-1-methyl-1H-indol-3-yl)-N,N-dimethylethanamine hydrochloride] | 260.6 to 261.3 °C | – | (21 ± 7.9 @ 10,000) % | > 10000 nM | 87% | 9.9 ± 3.27 nM | – | – | 55 ± 7.77 nM | – | 51% | – | – | –
CCOc1cc(F)cc2c1c(CCN(C)C)cn2C.Cl [Compound 32, 2-(4-Ethoxy-6-fluoro-1-methyl-1H-indol-3-yl)-N,N-dimethylethanamine hydrochloride] | 202.2 to 203.3 °C | – | (26 ± 7.6 @ 10,000) % | > 10000 nM | 85% | 31 ± 23.6 nM | – | – | 166 ± 113 nM | – | 66% | – | – | –
CCCOc1cc(F)cc2c1c(CCN(C)C)cn2C.Cl [Compound 33, 2-(6-Fluoro-1-methyl-4-propoxy-1H-indol-3-yl)-N,N-dimethylethanamine hydrochloride] | 195.4 to 196.8 °C | – | – | – | 91% | 384 ± 193 nM | – | – | 182 ± 102 nM | < 10% | 78% | – | – | –
CCn1cc(CCN(C)C)c2c(OC)cc(F)cc21.Cl [Compound 34, 2-(1-Ethyl-6-fluoro-4-methoxy-1H-indol-3-yl)-N,N-dimethylethanamine hydrochloride] | 233.4 to 234.9 °C | – | – | – | 82% | 24 ± 8.38 nM | – | – | 397 ± 133 nM | < 10% | 21% | – | – | –
CCOc1cc(F)cc2c1c(CCN(C)C)cn2CC [Compound 35, 2-(4-Ethoxy-1-ethyl-6-fluoro-1H-indol-3-yl)-N,N-dimethylethanamine] | 77.1 to 78.2 °C | – | (14 ± 4.8 @ 10,000) % | > 10000 nM | 88% | 246 ± 185 nM | – | – | 777 ± 383 nM | – | 47% | – | – | –
CCCOc1cc(F)cc2c1c(CCN(C)C)cn2CC [Compound 36, 2-(1-Ethyl-6-fluoro-4-propoxy-1H-indol-3-yl)-N,N-dimethylethanamine] | 68.9 to 70.1 °C | – | – | – | 87% | 659 ± 352 nM | – | – | 543 ± 325 nM | < 10% | – | – | – | –
CCCn1cc(CCN(C)C)c2c(OC)cc(F)cc21.Cl [Compound 37, 2-(6-Fluoro-4-methoxy-1-propyl-1H-indol-3-yl)-N,N-dimethylethanamine hydrochloride] | 119.8 to 121.3 °C | – | – | – | 69% | 354 ± 195 nM | < 10% | – | – | < 10% | – | – | – | –
CCCn1cc(CCN(C)C)c2c(OCC)cc(F)cc21.Cl [Compound 38, 2-(4-Ethoxy-6-fluoro-1-propyl-1H-indol-3-yl)-N,N-dimethylethanamine hydrochloride] | 154 to 156 °C | – | – | – | 80% | 1250 nM | < 10% | – | – | < 10% | – | – | – | –
CCCOc1cc(F)cc2c1c(CCN(C)C)cn2CCC.Cl [Compound 39, 2-(6-Fluoro-4-propoxy-1-propyl-1H-indol-3-yl)-N,N-dimethylethanamine hydrochloride] | 170.3 to 171.4 °C | – | – | – | 65% | 762 ± 469 nM | – | – | 3120 nM | < 10% | 26% | – | – | –
CCn1cc(CCN(C)C)c2c(OC)c(F)ccc21.Cl [Compound 41, 2-(1-Ethyl-5-fluoro-4-methoxy-1H-indol-3-yl)-N,N-dimethylethanamine hydrochloride] | 149 to 150 °C | – | – | – | 37% | 1.4 ± 0.19 nM | < 10% | – | – | < 10% | – | – | – | –
CCCn1cc(CCN(C)C)c2c(OC)c(F)ccc21.Cl [Compound 42, 2-(5-Fluoro-4-methoxy-1-propyl-1H-indol-3-yl)-N,N-dimethylethanamine hydrochloride] | 111 to 113 °C | – | – | – | 34% | 741 nM | < 10% | – | – | < 10% | – | – | – | –
CN(C)CCc1cn(C)c2c(F)ccc(OCc3ccccc3)c12 [Compound 50, 4-Benzyloxy-3-(2-dimethylaminoethyl)-7-fluoro-1-methyl-1H-indole] | 60 to 62 °C | – | – | – | 81% | 282 nM | < 10% | – | – | < 10% | – | – | – | –
CN(C)CCc1cn(C)c2cc(F)cc(OCc3ccccc3)c12 [Compound 51, 4-Benzyloxy-3-(2-dimethylaminoethyl)-6-fluoro-1-methyl-1H-indole] | 79 to 80 °C | – | – | – | 99% | 233 nM | < 10% | – | – | < 10% | – | – | – | –
CCOc1c(F)ccc2c1c(CCN(C)C)cn2C [Compound 59, 2-(4-Ethoxy-5-fluoro-1-methyl-1H-indol-3-yl)-N,N-dimethylethanamine hydrochloride] | – | – | – | – | 51% | 0.82 ± 0.23 nM | < 10% | – | – | < 10% | – | – | – | –
CCn1cc(CCN(C)C)c2cc(F)c(O)cc21 [Compound 83, 3-[2-(Dimethylamino-ethyl)]-1-ethyl-5-fluoro-1H-indol-6-ol] | – | – | – | – | – | 221 ± 27 nM | – | – | – | – | – | N/A (N/A: <10% max HT @ 10,000 nM) | (73 ± 4%) | N/A (N/A: <10% max HT @ 10,000 nM)
